According to patent US8067616B2 (Nereus Pharmaceuticals, Inc., priority 2006, dated 2011):

What was measured:
[1] = target: caspase-like activity of purified rabbit 20S proteasomes (Oryctolagus cuniculus, UniProt G1T235); assay: In vitro inhibition of caspase-like activity of purified rabbit muscle 20S proteasome (Z-LLE-AMC); format: biochemical; settings: IC50 Values, purified rabbit 20S proteasome
[2] = system: chymotrypsin-like activity of the 20S proteasome in RPMI 8226 cells; assay: Chymotrypsin-like activity of proteasomes in RPMI 8226 cells after 1 hr exposure, measured in cell lysates (Suc-LLVY-AMC); format: cell-based, human; settings: for % inhibition of the 20S proteasome chymotrypsin-like activity in RPMI 8826 cells: 1 hr incubation
Experimental: RPMI 8226 (ATCC, CCL-155), the human multiple myeloma cell line, was cultured in RPMI 1640 medium supplemented with 2 mM L-Glutamine, 1% Penicillin/Streptomycin, 10 mM HEPES and 10% Fetal Bovine Serum at 37° C., 5% CO2 and 95% humidified air. To evaluate the inhibitory effects on the chymotrypsin-like activity of the 20S proteasome, test compounds prepared in DMSO were appropriately diluted in culture medium and added to 1×10^6/ml RMPI 8226 cells at final concentration of 1, 5 or 10 nM. DMSO was used as the vehicle control at a final concentration of 0.1%. Following 1 hr incubation of RMPI 8226 cells with the compounds, the cells were pelleted by centrifugation at 2,000 rpm for 10 sec at room temperature and washed 3× with ice-cold 1× Dubach's Phosphate-Buffered Saline (DPBS, Mediatech, Herndon, Va.). DPBS washed cells were lysed on ice for 15 min in lysis buffer (20 mM HEPES, 0.5 mM EDTA, 0.05% Triton X-100, pH 7.3) supplemented with protease inhibitor cocktail (Roche Diagnostics, Indianapolis, Ind.). Cell debris was pelleted by centrifugation at 14,000 rpm for 10 min, 4° C. and supernatants (=cell lysates) were transferred to a new tube. Protein concentration was determined by the BCA protein assay kit (Pierce Biotechnology, Rockford, Ill.). […] The reactions were initiated by the addition of 10 μL of 0.4 mM Suc-LLVY-AMC (prepared by diluting a 10 mM solution of the peptide in DMSO 1:25 with assay buffer) to 190 μL of the cell lysates in 96-well Costar microtiter plate and incubated in the Thermo Lab Systems Fluoroskan plate reader at 37° C. Fluorescence of the cleaved peptide substrate was measured at λex=390 nm and λem=460 nm. All data were collected every five minutes for 2 hour. The total protein used for each assay was 20 μg. The final concentration of Suc-LLVY-AMC and DMSO was 20 μM and 0.2%, respectively. After subtraction of the background (the values from wells containing buffer and substrate in the absence of cell lysate), the activity of test compound was expressed as % inhibition as normalized to the proteasome activity observed in the DMSO treated control cells.

## C[C@@]12OC(=O)[C@]1([C@@H](O)[C@@H]1C=CCCC1)NC(=O)[C@@H]2CCCl [XVI-1A, Salinosporamide A]
[1]; XVI-1A obtained by fermentation
  IC50: 387 nM
[1]; XVI-1A obtained synthetically
  IC50: 467 nM
[2]; fermentation XVI-1A, 1 nM
  % inhibition of the 20S proteasome chymotrypsin-like activity in RPMI 8826 cells: 38%
[2]; fermentation XVI-1A, 5 nM
  % inhibition of the 20S proteasome chymotrypsin-like activity in RPMI 8826 cells: 86%
[2]; fermentation XVI-1A, 10 nM
  % inhibition of the 20S proteasome chymotrypsin-like activity in RPMI 8826 cells: 97%
[2]; fermentation or synthetic XVI-1A, 1, 5 or 10 nM
  inhibition of the 20S proteasome chymotrypsin-like activity on exposure of RPMI 8226 cells: dose-dependent inhibition
[2]; synthetic XVI-1A, 1 nM
  % inhibition of the 20S proteasome chymotrypsin-like activity in RPMI 8826 cells: 32%
[2]; synthetic XVI-1A, 5 nM
  % inhibition of the 20S proteasome chymotrypsin-like activity in RPMI 8826 cells: 79%
[2]; synthetic XVI-1A, 10 nM
  % inhibition of the 20S proteasome chymotrypsin-like activity in RPMI 8826 cells: 96%
